Laboratory results: patent publication US20240408114A1, “METHODS FOR PREVENTING AND TREATING ACUTE KIDNEY INJURY” (The Johns Hopkins University, priority 2021, published 2024)

Key:
kidney T cells [1] = assay: T cells from post-ischemic kidneys, spectral flow cytometry; type: in vivo, mouse
Method: Mice were treated with 1.83 mg/kg of JHU083 or vehicle every other day via intraperitoneal injection and underwent bilateral IRI surgery on day 7 after the initial injection. […] Hollinger et al., 2020. Mice were followed up until 72 h after IRI, and T cells isolated from post-ischemic kidneys were studied (FIG. 14A).
(§1) KMNCs were isolated according to our previously described Percoll density gradient protocol. Ascon et al., 2006. Briefly, decapsulated kidneys were immersed and incubated in collagenase D (2 mg/mL; Sigma-Aldrich) solution for 30 min at 37° C. Samples were strained through 70 µm cell strainer (BD Bioscience, Franklin Lakes, NJ), washed, and resuspended in 40% Percoll (GE Healthcare, Chicago, IL) followed by gentle overlaying onto 80% Percoll. After centrifugation at 1,500 g for 30 min in brake off mode at room temperature, KMNCs were collected from interface between 40% and 80% Percoll. Spleens were strained through 40 µm cell strainer (BD Bioscience) and incubated with ammonium-chloride-potassium lysis buffer (Quality Biological, Gaithersburg, MD) for 3 min. Collected cells were washed and resuspended with Roswell Park Memorial Institute (RPMI) 1640 media (Thermo Fisher Scientific, Waltham, MA) containing 5% fetal bovine serum (FBS, Thermo Fisher Scientific). Cells were counted on hemocytometer using trypan blue exclusion under a microscope.
(§2) Cells were washed once with phosphate buffered saline (PBS) and stained with viability dye Zombie NIR Fixable Viability (BioLegend, San Diego, CA) for 15 min at room temperature. After washing with Cell Staining Buffer (BioLegend), cells were preincubated with anti-CD16/CD32 Fc receptor blocking antibody (S17011E, BioLegend) for 15 min to prevent nonspecific antibody binding. Subsequently, surface staining was performed in 50 μL of BD horizon™ Brilliant Stain buffer and surface staining antibody cocktail for 30 min at 4° C.: Pacific blue anti-CD44 (IM7, BioLegend), BV510 anti-CD8 (53-6.7, BioLegend), BV570 anti-CD45 (30-F11, BioLegend), BV605 anti-CD69 (H1.2F3, BioLegend), BV650 anti-NK1.1 (PK136, BioLegend), BV711 anti-PD1 (29F.1A12, BioLegend), BV785 anti-TCRβ (H57-597, BioLegend), PE-Cy5.5 anti-CD25 (PC61.5, Thermo Fisher Scientific), APC-R700 anti-CD62L (MEL-14, BD Bioscience), and APC-Fire810 anti-CD4 (GK1.5, BioLegend). Cells were fixed and permeabilized with Foxp3/Transcription Factor Staining kit (Thermo Fisher Scientific) for 30 min at room temperature and washed with permeabilization/wash buffer (Thermo Fisher Scientific). Intracellular staining was conducted in 50 μL of permeabilization/wash buffer with intracellular staining antibody cocktail for 45 min at room temperature: BV421 anti-Ki67 (16A8, BioLegend), Alexa Fluor 488 anti-CPT1a (8F6AE9, Abcam, Cambridge, UK), Alexa Fluor 532 anti-VDAC1 (20B12AF2, Abcam), PerCP-efluor 710 anti-FoxP3 (FJK-16S, Thermo Fisher Scientific), PE anti-GLUT1 (EPR3915, Abcam), Alexa Fluor 594 anti-pS6 (D68F8, Cell Signaling, Danvers, MA), PE-Cy5 anti-HKII (EPR20839, Abcam), PE-Cy7 anti-H3K27me3 (C36B11, Cell Signaling), and Alexa Fluor 647 anti-Tomm20 (EPR15581-54, Abcam). After staining, cells were washed with permeabilization/wash buffer then resuspended in Cell Staining Buffer. Samples were analyzed by 4-laser Aurora spectral flow cytometer (Cytek, Fremont, CA).
(§3) Glutamine antagonist, JHU083 was synthesized as previously described, Rais et al., 2016, and dissolved in 50 mM […] 4-(2-hydroxyethyl)-1-piperazineethanesulfonic acid (HEPES) buffered 0.9% saline. Aliquot stocks were stored at −80° C. and thawed right before injection. Before the IRI surgery or cisplatin injection, mice were administered 1.83 mg/kg JHU083 (equivalent to 1 mg/kg DON) or vehicle (50 mM HEPES buffered 0.9% saline) every other day via intraperitoneal injection. Following 4 consecutive dosages, mice underwent IRI surgery or cisplatin injection. The last additional dose was given at 24 h after IRI or cisplatin injection. […]

kidney T cells [2] = assay: T cells from post-cisplatin AKI kidneys, spectral flow cytometry; type: in vivo, mouse
Method: Given the significant protective outcomes in ischemic AKI, we subsequently tested the effect of glutamine blockade on a nephrotoxic AKI model, which is another common etiology of clinical AKI. After pretreatment with JHU083 or vehicle, 25 mg/kg of cisplatin was injected intraperitoneally. T cells were isolated and studied after 72 h after cisplatin treatment (FIG. 16A).
as §1, §2
as §3, with “injection.” for “injection. The last additional dose was given at 24 h after IRI or cisplatin injection.”

[3] = post-ischemic kidneys, vs vehicle
[4] = post-cisplatin AKI kidneys, vehicle 21.4±2.7, P=0.001

CCOC(=O)[C@H](CCC(=O)C=[N+]=[N-])NC(=O)[C@@H](N)CC(C)C [JHU083]
expression of CD69, CD44, and Ki67 on kidney CD4+ and CD8+ T cells (kidney T cells [1]; Example 1, FIG. 8, after ischemic AKI, vs vehicle control group): reduced expression
CD69+ among kidney CD8+ T cells (kidney T cells [1]; post-ischemic kidneys, vehicle 24.9±2.3, P=0.019): 17.8±1.4%
CD62L+ among kidney CD4+ T cells (kidney T cells [1]; post-ischemic kidneys, vehicle 29.0±1.6, P<0.001): 42.8±2.2
CD62L+ among kidney CD8+ T cells (kidney T cells [1]; post-ischemic kidneys, vehicle 44.9±3.2, P<0.001): 63.6±2.8
Ki67+ among kidney CD4+ T cells (kidney T cells [1]; post-ischemic kidneys, vehicle 58.7±2.9, P=0.035): 50.6±2.1%
CD69+ among kidney DN T cells (kidney T cells [1]; post-ischemic kidneys, vehicle 60.6±2.5, P=0.005): 72.1±2.5%
Ki67+ among kidney CD8+ T cells (kidney T cells [1]; post-ischemic kidneys, vehicle 61.2±4.2, P=0.043): 48.4±4.1%
CD44+ among kidney CD8+ T cells (kidney T cells [1]; post-ischemic kidneys, vehicle 61.4±10.7, P=0.001): 40.9±11.2%
CD44+ among kidney CD4+ T cells (kidney T cells [1]; post-ischemic kidneys, vehicle 67.5±1.7, P<0.001): 56.3±1.9%
Ki67+ among kidney DN T cells (kidney T cells [1]; post-ischemic kidneys, vehicle 78.7±3.0, P=0.001): 91.2±1.1%
CD44+ among kidney DN T cells (kidney T cells [1]; post-ischemic kidneys, vehicle 94.4±2.4, P=0.038): 96.4±1.2%
levels of the other metabolic enzymes in kidney T cells (kidney T cells [1]; [3]): comparable between groups
proportions of CD4+, CD8+, DN T cells among total T cells and Tregs among CD4+ T cells (kidney T cells [1]; [3]): comparable between groups
pS6 and HKII expression in kidney T cells (kidney T cells [1]; post-ischemic kidneys, vs vehicle-treated mice): enhanced
number of total T cells in post-ischemic kidneys (kidney T cells [1]; vs vehicle): reduced
CD69 expression in CD4+, CD8+, and DN T cells (kidney T cells [2]; cisplatin AKI, FIG. 17C): reduced
CD69+ among kidney CD8+ T cells (kidney T cells [2]; [4]): 9.8±1.5%
Ki67+ among kidney CD8+ T cells (kidney T cells [2]; [4]): 9.8±1.5%
Ki67+ among kidney CD4+ T cells (kidney T cells [2]; post-cisplatin AKI kidneys, vehicle 37.0±2.9, P=0.003): 25.4±1.8
CD69+ among kidney CD4+ T cells (kidney T cells [2]; post-cisplatin AKI kidneys, vehicle 37.0±2.9, P=0.014): 25.4±1.8%
CD62L+ among kidney CD4+ T cells (kidney T cells [2]; post-cisplatin AKI kidneys, vehicle 37.5±3.2): 52.5±3.0%
CD44+ among kidney CD8+ T cells (kidney T cells [2]; post-cisplatin AKI kidneys, vehicle 43.3±3.3, P<0.001): 26.4±2.3%
CD62L+ among kidney CD8+ T cells (kidney T cells [2]; post-cisplatin AKI kidneys, vehicle 48.9±4.2, P<0.001): 76.0±2.3%
CD44+ among kidney CD4+ T cells (kidney T cells [2]; post-cisplatin AKI kidneys, vehicle 50.2±3.4, P=0.037): 40.9±2.4%
